Experimental data taken from ChEMBL document CHEMBL5210121, “Affinity On-target Cellular Literature for EUbOPEN Chemogenomics Library wave 3” (2023).
Each block holds one compound with its values, some of them ahead of it.

Columns and labels:
[1] = Affinity On-target Cellular interaction (Binding assay in HEK293 cells) EUB0000337aCl P2RY14
[2] = target: Inhibitor of nuclear factor kappa-B kinase subunit epsilon (Homo sapiens, UniProt Q14164)
[3] = target: Serine/threonine-protein kinase TBK1 (Homo sapiens, UniProt Q9UHD2)
[4] = target: Chromatin remodeling regulator CECR2 (Homo sapiens, UniProt Q9BXF3); assay: Affinity On-target Cellular interaction (NanoBRET assay (dose-dependent displacement from histone H3.3 in HEK293T cells)) EUB0000201c CECR2; assay type: cell-based; parameters: mode of action Inhibitor, recommended concentration 1 uM
[5] = target: Mas-related G-protein coupled receptor member X2 (Homo sapiens, UniProt Q96LB1); assay: Affinity On-target Cellular interaction (PRESTO-Tango concentration response assay (by the NIMH-PDSP)) EUB0000345a MRGPRX2; parameters: mode of action Negative control for (R)-ZINC 3573, recommended concentration 1 uM
[6] = target: Cystic fibrosis transmembrane conductance regulator (Homo sapiens, UniProt P13569, F508DEL); assay: Affinity On-target Cellular interaction (CFTR Restoration Trans-Epithelial Current Clamp (TECC) assay (in HBE cells from F508del CF patients)) EUB0000264b CFTR; assay type: cell-based; parameters: mode of action Negative control for A-1596586, recommended concentration 1 uM
[7] = target: Bifunctional epoxide hydrolase 2 (Homo sapiens, UniProt P34913); assay: Affinity On-target Cellular interaction (ELISA (inhibition of sEH in human Hep G2 cells)) EUB0000542a EPHX2; assay type: cell-based; parameters: mode of action Inhibitor, recommended concentration 100 nM
[8] = target: Nucleosome-remodeling factor subunit BPTF (Homo sapiens, UniProt Q12830); assay: Affinity On-target Cellular interaction (NanoBRET assay (HEK293T cells)) EUB0000254b BPTF; parameters: mode of action Negative control for NVS-BPTF-1, recommended concentration 1 uM
[9] = target: Tyrosine-protein kinase JAK3 (Homo sapiens, UniProt P52333); assay: Affinity On-target Cellular interaction (NanoBRET assay (HEK293T cells)) EUB0000007b JAK3; parameters: mode of action Negative control for FM-381, recommended concentration 100 nM
CREB-binding protein = CREB-binding protein (Homo sapiens, UniProt Q92793); assay: Affinity On-target Cellular interaction (NanoBRET assay (HEK293T cells)) EUB0000195c CREBBP; parameters: mode of action Inhibitor, recommended concentration 1 uM
[10] = target: Endothelin receptor type B (Homo sapiens, UniProt P24530); assay: Affinity On-target Cellular interaction (Cellular functional assay (antagonist effect, Eurofins)) EUB0000339a EDNRB; parameters: mode of action Negative control for A-192621, recommended concentration 100 nM
D(4) dopamine receptor = D(4) dopamine receptor (Homo sapiens, UniProt P21917); assay: Affinity On-target Cellular interaction (Fluorometric Imaging Plate Reader (FLIPR) Assay (agonist activity at human D4.4 receptor in HEK293 cells coexpressing G-alpha-qo5)) EUB0000332a DRD4; assay type: cell-based; parameters: mode of action Negative control for ABT-724, recommended concentration 100 nM
[11] = target: Dual specificity protein kinase CLK1 (Homo sapiens, UniProt P49759); assay: Affinity On-target Cellular interaction (NanoBRET assay (HEK293T cells)) EUB0000724a CLK1; parameters: mode of action Inhibitor, recommended concentration 1 uM
[12] = target: Histone-lysine N-methyltransferase, H3 lysine-79 specific (Homo sapiens, UniProt Q8TEK3); assay: Affinity On-target Cellular interaction (Western Blot (reduction of H3K79 dimethylation in A431 cells by DOT1L)) EUB0000216b DOT1L; assay type: cell-based; parameters: mode of action Inhibitor, recommended concentration 1 uM
[13] = target: Bromodomain adjacent to zinc finger domain protein 2A (Homo sapiens, UniProt Q9UIF9); assay: Affinity On-target Cellular interaction (Chemoproteomic competition binding assay (endogenous full-length BAZ2A from HuT78 extracts)) EUB0000267b BAZ2A; parameters: mode of action Negative control for GSK2801, recommended concentration 1 uM
[14] = target: Bromodomain adjacent to zinc finger domain protein 2B (Homo sapiens, UniProt Q9UIF8); assay: Affinity On-target Cellular interaction (Chemoproteomic competition binding assay (endogenous full-length BAZ2B captured on the GSK8573 affinity matrix from HuT-78 cell lysate) ) EUB0000267b BAZ2B; parameters: mode of action Negative control for GSK2801, recommended concentration 1 uM
[15] = target: Proteinase-activated receptor 1 (Homo sapiens, UniProt P25116); assay: Affinity On-target Cellular interaction (Functional cellular assay in HEK cells expressing F2R) EUB0000333a F2R; assay type: cell-based; parameters: mode of action Negative control for BAY-386, recommended concentration 100 nM
[16] = Affinity On-target Cellular interaction (Cellular human mast cell degranulation assay) EUB0000714a SYK
[17] = target: Transient receptor potential cation channel subfamily A member 1 (Homo sapiens, UniProt O75762); assay: Affinity On-target Cellular interaction (Electrophysiological assay (inhibition of AITC (allylthiocyanate, 100 µmol/L)-evoked currents in HEK293F cells transiently overexpressing hTRPA1)) EUB0000308b TRPA1; assay type: cell-based; parameters: mode of action Antagonist, recommended concentration 1 uM
Chain of Transient receptor potential cation channel subfamily A member 1 (O75762 whole entry): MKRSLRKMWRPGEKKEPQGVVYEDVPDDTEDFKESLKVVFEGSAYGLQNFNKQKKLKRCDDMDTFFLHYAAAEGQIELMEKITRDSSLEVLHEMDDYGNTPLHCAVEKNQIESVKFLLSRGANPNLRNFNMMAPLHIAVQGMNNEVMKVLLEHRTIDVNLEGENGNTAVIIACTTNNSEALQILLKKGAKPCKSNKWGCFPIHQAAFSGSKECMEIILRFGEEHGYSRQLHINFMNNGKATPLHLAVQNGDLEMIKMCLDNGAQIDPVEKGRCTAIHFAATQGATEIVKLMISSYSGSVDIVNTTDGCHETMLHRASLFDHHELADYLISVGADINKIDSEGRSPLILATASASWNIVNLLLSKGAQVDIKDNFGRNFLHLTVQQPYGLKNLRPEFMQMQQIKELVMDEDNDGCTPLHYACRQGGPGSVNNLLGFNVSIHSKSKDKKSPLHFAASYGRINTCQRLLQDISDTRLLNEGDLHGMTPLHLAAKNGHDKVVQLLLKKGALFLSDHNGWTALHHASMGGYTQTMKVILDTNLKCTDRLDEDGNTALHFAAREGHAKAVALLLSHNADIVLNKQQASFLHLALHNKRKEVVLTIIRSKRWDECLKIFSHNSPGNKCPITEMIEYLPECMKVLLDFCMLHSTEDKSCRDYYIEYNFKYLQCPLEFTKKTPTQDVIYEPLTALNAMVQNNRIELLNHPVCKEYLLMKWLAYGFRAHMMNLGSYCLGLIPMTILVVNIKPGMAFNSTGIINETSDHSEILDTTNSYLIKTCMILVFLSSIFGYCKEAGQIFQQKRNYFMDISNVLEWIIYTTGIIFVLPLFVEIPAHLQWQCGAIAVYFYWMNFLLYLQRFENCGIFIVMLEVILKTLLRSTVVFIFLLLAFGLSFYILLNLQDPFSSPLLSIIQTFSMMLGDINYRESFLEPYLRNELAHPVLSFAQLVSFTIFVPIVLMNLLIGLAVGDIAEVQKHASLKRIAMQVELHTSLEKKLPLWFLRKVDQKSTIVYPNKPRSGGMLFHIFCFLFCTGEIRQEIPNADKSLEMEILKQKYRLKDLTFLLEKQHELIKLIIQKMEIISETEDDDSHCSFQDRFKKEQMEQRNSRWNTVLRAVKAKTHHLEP

Chain of Chromatin remodeling regulator CECR2 (Q9BXF3 whole entry): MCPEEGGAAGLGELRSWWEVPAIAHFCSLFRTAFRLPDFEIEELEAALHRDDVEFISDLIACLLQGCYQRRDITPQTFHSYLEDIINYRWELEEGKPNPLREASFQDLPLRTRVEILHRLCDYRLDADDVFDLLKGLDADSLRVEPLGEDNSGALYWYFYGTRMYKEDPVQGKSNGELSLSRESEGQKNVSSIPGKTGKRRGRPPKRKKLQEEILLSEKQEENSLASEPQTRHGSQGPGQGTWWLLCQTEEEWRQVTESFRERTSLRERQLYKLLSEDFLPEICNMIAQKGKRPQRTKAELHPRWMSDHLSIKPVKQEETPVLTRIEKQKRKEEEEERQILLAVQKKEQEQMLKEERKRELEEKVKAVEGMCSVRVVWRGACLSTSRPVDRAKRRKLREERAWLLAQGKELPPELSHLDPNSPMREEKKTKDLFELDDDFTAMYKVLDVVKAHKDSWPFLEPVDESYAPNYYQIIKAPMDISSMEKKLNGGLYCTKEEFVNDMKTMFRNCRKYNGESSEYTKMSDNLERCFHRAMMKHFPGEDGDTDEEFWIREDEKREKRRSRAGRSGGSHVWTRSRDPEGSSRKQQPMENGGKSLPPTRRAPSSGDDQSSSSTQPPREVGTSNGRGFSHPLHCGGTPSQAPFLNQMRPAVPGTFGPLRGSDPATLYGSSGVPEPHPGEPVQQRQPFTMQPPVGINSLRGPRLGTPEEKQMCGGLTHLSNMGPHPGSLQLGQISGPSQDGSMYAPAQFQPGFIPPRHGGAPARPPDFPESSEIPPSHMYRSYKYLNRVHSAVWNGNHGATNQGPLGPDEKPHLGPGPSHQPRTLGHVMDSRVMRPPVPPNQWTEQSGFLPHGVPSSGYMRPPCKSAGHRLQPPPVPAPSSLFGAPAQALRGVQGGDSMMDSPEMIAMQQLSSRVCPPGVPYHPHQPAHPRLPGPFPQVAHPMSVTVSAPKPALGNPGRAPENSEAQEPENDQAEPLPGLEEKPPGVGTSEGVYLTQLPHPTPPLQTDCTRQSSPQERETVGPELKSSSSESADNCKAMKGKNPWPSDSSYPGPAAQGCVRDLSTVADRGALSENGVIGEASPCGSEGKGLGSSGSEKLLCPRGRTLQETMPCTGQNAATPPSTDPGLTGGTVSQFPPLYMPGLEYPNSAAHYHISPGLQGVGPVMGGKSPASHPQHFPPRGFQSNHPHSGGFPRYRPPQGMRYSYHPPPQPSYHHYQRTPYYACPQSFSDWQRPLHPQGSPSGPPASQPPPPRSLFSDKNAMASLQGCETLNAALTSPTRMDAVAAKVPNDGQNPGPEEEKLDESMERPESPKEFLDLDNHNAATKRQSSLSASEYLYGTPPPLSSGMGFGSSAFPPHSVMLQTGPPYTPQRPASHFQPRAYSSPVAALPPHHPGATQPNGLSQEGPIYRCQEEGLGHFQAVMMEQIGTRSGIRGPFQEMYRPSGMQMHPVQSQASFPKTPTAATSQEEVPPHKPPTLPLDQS
Chain of Tyrosine-protein kinase JAK3 (P52333 whole entry): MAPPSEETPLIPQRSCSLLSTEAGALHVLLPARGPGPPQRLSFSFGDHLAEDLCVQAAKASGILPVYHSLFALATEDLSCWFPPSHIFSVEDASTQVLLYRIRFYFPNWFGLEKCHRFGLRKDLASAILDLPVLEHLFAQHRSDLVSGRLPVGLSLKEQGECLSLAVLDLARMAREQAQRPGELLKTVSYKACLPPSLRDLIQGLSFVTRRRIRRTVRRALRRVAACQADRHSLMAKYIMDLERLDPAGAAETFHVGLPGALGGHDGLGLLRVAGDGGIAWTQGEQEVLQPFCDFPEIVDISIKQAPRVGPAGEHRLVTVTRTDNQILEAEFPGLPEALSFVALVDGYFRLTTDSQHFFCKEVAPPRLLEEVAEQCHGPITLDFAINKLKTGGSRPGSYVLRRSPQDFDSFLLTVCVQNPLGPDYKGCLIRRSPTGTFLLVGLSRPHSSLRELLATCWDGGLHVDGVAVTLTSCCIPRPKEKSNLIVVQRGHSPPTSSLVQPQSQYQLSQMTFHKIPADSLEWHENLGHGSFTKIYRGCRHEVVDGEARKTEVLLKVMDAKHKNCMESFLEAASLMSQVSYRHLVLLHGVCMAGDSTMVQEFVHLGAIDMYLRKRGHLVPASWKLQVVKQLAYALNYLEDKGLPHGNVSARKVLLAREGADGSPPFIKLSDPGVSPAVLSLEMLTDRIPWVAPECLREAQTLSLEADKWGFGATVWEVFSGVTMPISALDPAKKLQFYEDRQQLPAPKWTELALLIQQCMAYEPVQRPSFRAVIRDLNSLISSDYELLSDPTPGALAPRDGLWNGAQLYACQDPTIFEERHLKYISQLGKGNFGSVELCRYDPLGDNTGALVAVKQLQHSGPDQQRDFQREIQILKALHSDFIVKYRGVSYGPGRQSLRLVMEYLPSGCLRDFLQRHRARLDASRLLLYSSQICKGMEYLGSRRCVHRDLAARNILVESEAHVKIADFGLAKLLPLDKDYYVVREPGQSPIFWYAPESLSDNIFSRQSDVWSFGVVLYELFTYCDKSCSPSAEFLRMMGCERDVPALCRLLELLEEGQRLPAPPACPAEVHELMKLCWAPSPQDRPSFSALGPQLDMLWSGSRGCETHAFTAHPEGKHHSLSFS
Chain of Proteinase-activated receptor 1 (P25116 whole entry): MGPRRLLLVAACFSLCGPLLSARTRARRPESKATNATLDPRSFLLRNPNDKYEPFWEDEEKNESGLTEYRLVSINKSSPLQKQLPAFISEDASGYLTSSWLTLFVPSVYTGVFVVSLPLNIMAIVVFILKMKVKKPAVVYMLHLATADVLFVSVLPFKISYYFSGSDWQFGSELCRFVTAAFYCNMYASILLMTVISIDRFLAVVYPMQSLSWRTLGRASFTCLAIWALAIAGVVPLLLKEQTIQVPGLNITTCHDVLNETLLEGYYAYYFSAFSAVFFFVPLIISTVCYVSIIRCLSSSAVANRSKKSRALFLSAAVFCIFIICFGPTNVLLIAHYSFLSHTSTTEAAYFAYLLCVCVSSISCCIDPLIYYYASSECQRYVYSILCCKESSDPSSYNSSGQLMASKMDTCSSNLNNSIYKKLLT
Chain of D(4) dopamine receptor (P21917 whole entry): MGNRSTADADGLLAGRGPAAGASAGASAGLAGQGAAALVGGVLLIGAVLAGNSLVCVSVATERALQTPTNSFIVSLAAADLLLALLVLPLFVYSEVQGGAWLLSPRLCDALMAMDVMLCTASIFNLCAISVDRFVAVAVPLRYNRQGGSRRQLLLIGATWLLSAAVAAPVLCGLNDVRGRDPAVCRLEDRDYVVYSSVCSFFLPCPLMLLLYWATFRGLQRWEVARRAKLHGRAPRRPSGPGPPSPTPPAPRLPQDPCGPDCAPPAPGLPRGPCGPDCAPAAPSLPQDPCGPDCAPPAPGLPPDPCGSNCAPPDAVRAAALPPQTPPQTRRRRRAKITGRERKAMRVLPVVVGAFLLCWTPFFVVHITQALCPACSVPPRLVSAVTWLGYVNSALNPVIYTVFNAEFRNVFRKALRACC
Chain of Mas-related G-protein coupled receptor member X2 (Q96LB1 whole entry): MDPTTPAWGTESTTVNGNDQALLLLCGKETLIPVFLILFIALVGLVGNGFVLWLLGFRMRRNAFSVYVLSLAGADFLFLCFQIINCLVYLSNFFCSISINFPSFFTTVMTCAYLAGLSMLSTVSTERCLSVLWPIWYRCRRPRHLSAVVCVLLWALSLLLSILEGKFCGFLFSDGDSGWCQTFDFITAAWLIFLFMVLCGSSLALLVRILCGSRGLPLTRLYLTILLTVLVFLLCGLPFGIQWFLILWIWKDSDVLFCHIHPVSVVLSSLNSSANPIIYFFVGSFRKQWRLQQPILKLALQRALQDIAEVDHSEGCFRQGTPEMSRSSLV

SMILES: Cc1c(C(=O)O)cc(-c2ccc(C3CCNCC3)cc2)c2ccc(-c3ccc(C(F)(F)F)cc3)cc12
Ki [1]: 8.61 µM

SMILES: CCCS(=O)(=O)c1nc(NC2CC2)cc(-c2ccc3c(ccn3C3CC(C)(C)NC(C)(C)C3)c2)n1
IC50 [4]: 0.255 µM

SMILES: CN(C)[C@H]1CCN(c2cc(-c3ccccc3)nc3ccnn23)C1 [(S)-ZINC-3573]
EC50 [5]: > 100 µM

SMILES: CCOCCn1cc(C(=O)Nc2ccc(-n3nc(-c4cccnc4)cc3C(F)(F)F)cn2)ccc1=O [BI 1935]
IC50 [7]: < 0.001 µM

SMILES: Cc1c(Nc2ccc(S(=O)(=O)N3CCN(C)CC3)cc2F)nc2ccc(Nc3cnn(C4CC4)c3)cn2c1=O
IC50 [8]: > 10 µM

SMILES: CN(C)C(=O)/C(C#N)=C/c1ccc(-c2nc3cnc4c(ccn4C)c3n2C2CCCCC2)o1
IC50 [9]: > 10 µM

SMILES: CCC(=O)N1CCOc2c(cc(-c3ccc(OC)c(OC)c3)cc2OC[C@H]2CCCN(C)C2)C1
IC50 (CREB-binding protein): 0.6 µM

SMILES: COc1cc(Nc2nccc(-c3cnn4nc(OC)ccc34)n2)cc(C(F)(F)F)c1
IC50 [11]: 0.165 µM

SMILES: CC(C)N(CCCNC(=O)Nc1ccc(C(C)(C)C)cc1)C[C@H]1O[C@@H](n2cc(Br)c3c(N)ncnc32)[C@H](O)[C@@H]1O
IC50 [12]: 0.0026 µM

SMILES: CCCOc1ccn2c(C(C)=O)cc(-c3cccc(OC)c3)c2c1
Kd [13]: > 10 µM
Kd [14]: > 10 µM

SMILES: Cc1cc(Nc2nccc(C)n2)cc(-c2cnc([C@@]3(O)CC[C@H](C(=O)O)C(C)(C)C3)s2)c1 [MRL-SYKi]
IC50 [16]: 0.038 µM

SMILES: Clc1cccc(-c2nnnn2Cc2cccnc2)c1Cl
IC50 [17]: 0.051 µM

More lines, now with the values ahead:

IC50 [2]: > 27 µM
IC50 [3]: > 27 µM
SMILES: CN(C)c1ncnc(-c2ccc3nc(Nc4cc(CN5CCN(C(=O)CC(F)(F)F)CC5)ccn4)[nH]c3c2)c1Cl [BAY-440]

EC50 [6]: > 3 µM
SMILES: COc1ccc2c(c1)O[C@H](c1ccc(OC)c(OC)c1)C[C@@H]2NC(=O)C1(c2ccc3c(c2)OC(F)(F)O3)CC1 [A-1596584]

IC50 [10]: > 10 µM
SMILES: CCCOc1ccc([C@@H]2[C@@H](C(=O)O)[C@H](c3ccc4c(c3)OCO4)CN2CC(=O)Nc2c(CC)cccc2CC)cc1 [A-1806262]

EC50 (D(4) dopamine receptor): > 10 µM
SMILES: CSc1cccnc1N1CCN(Cc2nc3ccccc3[nH]2)CC1 [A-769]

IC50 [15]: > 10 µM
SMILES: Cc1noc([C@H]2C[C@@H](c3ccc(C(F)(F)F)cc3)CN(C(=O)N3CCS(=O)(=O)C3)C2)n1 [BAY-448]
